Values quoted from earlier work in patent US20260308141A1, “SYNTHESIS OF ORELLANINE” (ONCORENA AB, priority 2023, published 2026).

Experiments:
[1] = test system: human renal cancer cells
[2] = test system: human renal cancer cells; remark: listed apart in the source

[O-][n+]1ccc(O)c(O)c1-c1c(O)c(O)cc[n+]1[O-] [Orellanine]
progress of cell death ([1]; after transient exposure to Orellanine): progressed for many days | killing of human renal cancer cells ([1]; cells derived from a primary tumor or from metastatic tumor tissue): killed them with great efficiency | active uptake and retention by the cells (inferred from progressing cell death) ([2]; after transient exposure): actively taken up and retained by the cells | uptake in human renal cancer cells ([2]; human renal cancer cells, primary or metastatic): taken up in human renal cancer cells
